Consider three compounds from patent publication US7317125B2 (Hoffman-La Roche Inc., priority 2005, dated 2008).

Broadly, the EC50 is the concentration that produces a half-maximal response.

The target in the experiment is T1, DGAT1 (Homo sapiens, UniProt O75907).
T1 construct: expressed in transfected cells; host or cells: CHOK1
T1 sequence (O75907 1-488): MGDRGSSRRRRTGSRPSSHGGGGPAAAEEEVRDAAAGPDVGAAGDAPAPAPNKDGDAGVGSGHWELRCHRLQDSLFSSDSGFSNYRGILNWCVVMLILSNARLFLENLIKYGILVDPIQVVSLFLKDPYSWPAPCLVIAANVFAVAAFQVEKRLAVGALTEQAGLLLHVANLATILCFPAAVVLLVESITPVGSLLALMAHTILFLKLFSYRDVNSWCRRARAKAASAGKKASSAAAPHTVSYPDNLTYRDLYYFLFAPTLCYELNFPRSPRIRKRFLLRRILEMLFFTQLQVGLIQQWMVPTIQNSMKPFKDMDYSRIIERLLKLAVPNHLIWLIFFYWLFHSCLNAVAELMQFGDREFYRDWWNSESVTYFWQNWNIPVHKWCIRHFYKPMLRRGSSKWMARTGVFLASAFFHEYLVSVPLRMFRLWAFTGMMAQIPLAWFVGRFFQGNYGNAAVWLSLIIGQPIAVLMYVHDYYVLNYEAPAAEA
Put plainly: DGAT CHOK1 Cell Assay. The experiment is classed as cell-based. The following applies: CHOK1 cells transfected with DGAT1, 14C palmitic acid, 1 hour at 37° C., triglyceride by TLC. An excerpt: Materials for the assay were: petroleum ether (J. T. Baker #9268-22); diethyl ether (Aldrich #30995-8); acetic acid; 1,2-dioleoyl-3-palmitoyl-glycerol (Sigma D-1782); ^[…] Palmitic Acid (56.0 mCi/mmol PerkinElmer Life Sciences # NEC 075H); DMEM/F12 (Gibco #11330-032); fetal bovine serum; L-Glutamine; G418/ml media; DMEM High Glucose (Gibco #11995-065); BSA Fraction V Fatty Acid Free (Roche #100 377); 20×°cm silica gel 60 glass plates (EM Science Plates #5721/7).
CHOK1/DGAT cell culture medium was prepared with DMEM/F12 (Gibco #11330-032), […], and 20 ul G418/ml media. 1,2-dioleoyl-3-palmitoyl-glycerol was prepared by dissolving 10 mg into 1 ml chloroform and stored at −20° C. in 100 μl aliquots. Test compounds were prepared as 10 mM stock solutions in DMSO and store at −20° C. before use. Test dilutions were prepared by five fold serial dilutions over final concentrations.
CHOK1 cells transfected with DGAT1 were diluted in 6 well plates at 2.5×10^5 cells per well and cultured overnight. Cells were then washed twice with PBS. Test compound solutions (10 μl/2 ml media aliquots) in DMEM High Glucose with 0.01% BSA (fatty acid free) were added to cell culture plates at 800 μl per well. ^14C Palmitic acid (0.5 μCi, 5 μl) was added to each well. The plates were incubated for 1 hour at 37° C. After the incubation period, the plates were placed on ice, cells were scraped into media and transferred to microfuge tubes. 400 μl chloroform:methanol (2:1) was added to each tube. Each tube was briefly vortexed by hand, then mechanically vortexed for 10 minutes. Each tube was then centrifuged at 14,000 RPM for 10 minutes at 4° C. and the bottom layer removed and transferred to a new microfuge tube.
Extracted samples were spotted onto TLC plates at 20 μl per lane. The TLC plates were eluted with a solvent mixture of petroleum ether, diethyl ether and acetic acid (80:20:1) and air dried. Trigylceride (TG) spots were visualized by placing in an iodine chamber for several minutes. 1 μl of ^14C palmitic acid (diluted 1:10 in 100% EtOH) was spotted on the TG standard lane (at TG level) as a reference. The TLC plates were wrapped in plastic wrap and placed in a phosphorimager cassette for scanning.
The EC50 values for those compounds tested in this Example were generated using an Excel template, the results of which are shown in Table II: […]
Consider `CC(C)N(NC(=O)c1ccccc1)C(=O)CSc1ccccc1-c1ccccc1F` [Example 54, benzoic acid N′-[2-(2′-fluoro-biphenyl-2-ylsulfanyl)-acetyl]-N′-isopropyl-hydrazide], for which the concentration for a half-maximal effect (EC50) turned out to be 1.43 µM. The compound `CCCOc1ccccc1-c1cc(F)ccc1OCC(=O)N(NC(=O)c1ccccc1)C(C)C` [Example 17, benzoic acid N′-[2-(5-fluoro-2′-propoxy-biphenyl-2-yloxy)-acetyl]-N′-isopropyl-hydrazide] showed a concentration for a half-maximal effect (EC50) of 2.17 µM.

On to `CC(C)N(NC(=O)c1ccccc1)C(=O)COc1c(F)cc(F)cc1-c1ccccc1OC(F)(F)F` [Example 33, benzoic acid N′-[2-(3,5-difluoro-2′-trifluoromethoxy-biphenyl-2-yloxy)-acetyl]-N′-isopropyl hydrazide], for which the EC50 stood at 0.356 µM.
